Data on 21 compounds can be found in ChEMBL document CHEMBL4190173 (Medchemcomm, 2016).

As a reminder, the inhibition is the relative decrease from the control value, in per cent. The term IC50 denotes the concentration needed to halve the response being measured.

For experiment [1], the target named is T1, NAD-dependent protein deacetylase sirtuin-2 (Homo sapiens) (UniProt Q8IXJ6).
T1 sequence (whole entry): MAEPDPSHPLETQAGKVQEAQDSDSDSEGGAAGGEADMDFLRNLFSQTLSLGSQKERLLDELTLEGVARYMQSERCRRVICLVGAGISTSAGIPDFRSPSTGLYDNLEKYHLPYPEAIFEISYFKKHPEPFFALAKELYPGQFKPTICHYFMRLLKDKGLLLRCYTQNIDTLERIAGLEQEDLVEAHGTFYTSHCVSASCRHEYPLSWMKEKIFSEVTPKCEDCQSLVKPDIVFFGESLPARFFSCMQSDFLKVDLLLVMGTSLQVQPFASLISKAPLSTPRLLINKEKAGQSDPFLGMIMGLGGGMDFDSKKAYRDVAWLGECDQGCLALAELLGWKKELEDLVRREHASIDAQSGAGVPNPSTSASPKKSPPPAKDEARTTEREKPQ
Put plainly: Inhibition of human recombinant SIRT2 at 50 uM using AMC-p53 ([…] residues) as substrate incubated for 45 mins followed by NAD+ addition measured after 30 mins by fluorescence assay relative to control.

Experiment [2] concerns the target T2, NAD-dependent protein deacetylase sirtuin-1 (Homo sapiens) (UniProt Q96EB6).
T2 sequence (whole entry): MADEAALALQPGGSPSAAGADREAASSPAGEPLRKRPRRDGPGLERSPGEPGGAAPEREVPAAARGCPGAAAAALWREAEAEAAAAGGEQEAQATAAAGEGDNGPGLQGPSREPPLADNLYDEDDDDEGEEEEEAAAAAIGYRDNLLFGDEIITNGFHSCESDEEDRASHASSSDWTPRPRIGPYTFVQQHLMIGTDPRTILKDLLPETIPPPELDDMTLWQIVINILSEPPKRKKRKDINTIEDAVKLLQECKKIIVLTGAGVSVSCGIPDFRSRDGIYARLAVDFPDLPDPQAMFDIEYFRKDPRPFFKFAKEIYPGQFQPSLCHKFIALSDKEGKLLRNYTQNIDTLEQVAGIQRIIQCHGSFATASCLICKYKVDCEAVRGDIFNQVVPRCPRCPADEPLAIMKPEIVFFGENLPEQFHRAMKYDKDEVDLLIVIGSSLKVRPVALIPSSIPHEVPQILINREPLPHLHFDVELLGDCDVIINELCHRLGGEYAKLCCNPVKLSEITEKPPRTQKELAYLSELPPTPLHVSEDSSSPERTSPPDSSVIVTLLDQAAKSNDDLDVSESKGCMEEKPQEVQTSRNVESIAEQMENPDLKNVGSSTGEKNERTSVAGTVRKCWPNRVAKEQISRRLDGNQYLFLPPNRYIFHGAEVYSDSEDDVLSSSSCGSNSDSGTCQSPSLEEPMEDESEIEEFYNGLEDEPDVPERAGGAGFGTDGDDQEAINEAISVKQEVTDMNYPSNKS
The experiment is described as follows: Inhibition of human recombinant SIRT1 at 50 uM using AMC-p53 (379 to 382 residues) as substrate incubated for 45 mins followed by NAD+ addition measured after 30 mins by fluorescence assay relative to control.

For experiment [3], the target named is T3, NAD-dependent protein deacetylase sirtuin-3, mitochondrial (Homo sapiens) (UniProt Q9NTG7).
T3 sequence (whole entry): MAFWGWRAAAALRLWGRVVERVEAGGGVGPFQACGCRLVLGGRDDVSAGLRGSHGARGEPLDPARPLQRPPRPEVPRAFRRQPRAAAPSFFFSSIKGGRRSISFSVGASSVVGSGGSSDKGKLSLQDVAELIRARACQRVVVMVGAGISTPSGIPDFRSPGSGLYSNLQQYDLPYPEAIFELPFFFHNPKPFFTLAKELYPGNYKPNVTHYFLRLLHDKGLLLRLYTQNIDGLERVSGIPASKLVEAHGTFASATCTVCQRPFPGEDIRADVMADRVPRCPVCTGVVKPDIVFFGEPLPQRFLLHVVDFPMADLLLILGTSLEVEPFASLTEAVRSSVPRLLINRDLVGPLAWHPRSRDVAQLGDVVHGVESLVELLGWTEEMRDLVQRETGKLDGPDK
The experiment is described as follows: Inhibition of human recombinant SIRT3 at 50 uM using AMC-p53 ([…] residues) as substrate incubated for 45 mins followed by NAD+ addition measured after 30 mins by fluorescence assay relative to control.

The target in experiment [4] is T4, NAD-dependent protein deacetylase sirtuin-1 (Homo sapiens, UniProt Q96EB6).
T4 sequence (Q96EB6 whole entry): T2 sequence (whole entry)
Put plainly: Inhibition of human recombinant SIRT1 using AMC-p53 (379 to 382 residues) as substrate incubated for 45 mins followed by NAD+ addition measured after 30 mins by fluorescence assay.

Experiment [5] addresses T5, NAD-dependent protein deacetylase sirtuin-2 (Homo sapiens, UniProt Q8IXJ6).
T5 sequence (Q8IXJ6 whole entry): T1 sequence (whole entry)
The experiment is described as follows: Inhibition of human recombinant SIRT2 using AMC-p53 (317 to 320 residues) as substrate incubated for 45 mins followed by NAD+ addition measured after 30 mins by fluorescence assay.

For experiment [6], the target named is T6, NAD-dependent protein deacetylase sirtuin-3, mitochondrial (Homo sapiens, UniProt Q9NTG7).
T6 sequence (Q9NTG7 whole entry): T3 sequence (whole entry)
Put plainly: Inhibition of human recombinant SIRT3 using AMC-p53 (317 to 320 residues) as substrate incubated for 45 mins followed by NAD+ addition measured after 30 mins by fluorescence assay.

Experiment [7] has as its target T1, NAD-dependent protein deacetylase sirtuin-2 (Homo sapiens). The experiment is described as follows: Competitive inhibition of human recombinant SIRT2 using varying levels of NAD+.
Experiment [8] shares this target. The experiment is described as follows: Competitive inhibition of human recombinant SIRT2 using varying levels of AMC-p53 (317 to 320 residues) as substrate.

Active and inactive are the calls of the source. The rule behind the calls is not given here. Some results are limits rather than exact numbers.

As for `CCCCCCCCn1c(-c2ccc(-c3ccc(OC(F)(F)F)cc3)cc2)nc2cc(C(=O)OCC)ccc21`, the results for the inhibition in experiment [1], in experiment [2] and in experiment [3] were 35.6%, 25% and 16.9%, respectively.
As to `CCCCCCCCn1c(-c2ccc(-c3ccc(Cl)cc3)cc2)nc2cc(C(=O)OCC)ccc21`, the inhibition in experiment [1] turned out to be 38.3%; in experiment [2], 24.3%; in experiment [3], 24.9%.
For the compound `CCOC(=O)c1ccc(N2CCN(CCn3c(-c4ccc(-c5ccc6c(c5)OCO6)cc4)nc4cc(C(=O)OCC)ccc43)CC2)c(N)c1`, the IC50 in experiment [4] is 29.8 µM; in experiment [5], 16.1 µM; in experiment [6], 27 µM.
On to `CCOC(=O)c1ccc(N2CCN(CCn3c(-c4ccc(-c5ccc(O)cc5O)cc4)nc4cc(C(=O)OCC)ccc43)CC2)c(N)c1`, for which the results for the IC50 in experiment [4] and in experiment [5] were 20 µM and 7.87 µM, respectively.
Regarding `CCCCCCCCn1c(-c2ccc(-c3ccc(N(C)C)cc3)cc2)nc2cc(C(=O)OCC)ccc21`, the IC50 in experiment [4] is above 50 µM; in experiment [5] it was 38.1 µM; in experiment [6], above 50 µM.
Consider `CCCCCCCCn1c(-c2ccc(-c3ccc(O)c(OC)c3)cc2)nc2cc(C(=O)OCC)ccc21`, for which the IC50 was above 50 µM in experiment [4], 46.9 µM in experiment [5] and above 50 µM in experiment [6].
Turning to `CCOC(=O)c1ccc(N2CCN(CCn3c(-c4ccc(-c5ccccc5)cc4)nc4cc(C(=O)OCC)ccc43)CC2)c(N)c1`, the inhibition was found to be 26.8% in experiment [1], 31.1% in experiment [2] and 25.1% in experiment [3].
With `CN(C)CCCCC(=O)Nc1ccc(NC(=S)NC(=O)c2ccc(C(C)(C)C)cc2)cc1`, in experiment [6], the IC50 was 82.6 µM.
With `CCOC(=O)c1ccc(N2CCN(CCn3c(-c4ccc(-c5ccc(OC(F)(F)F)cc5)cc4)nc4cc(C(=O)OCC)ccc43)CC2)c(N)c1`, the inhibition in experiment [1] came to 37.2%; in experiment [2] it was 24.6%; in experiment [3], 20.6%.
Turning to `CCOC(=O)c1ccc(N2CCN(CCn3c(-c4ccc(-c5ccc(O)c(OC)c5)cc4)nc4cc(C(=O)OCC)ccc43)CC2)c(N)c1`, the IC50 is 35.1 µM in experiment [4] and 8.61 µM in experiment [5].
With `CCCCCCCCn1c(-c2ccc(-c3ccc(N4CCCCC4)cc3)cc2)nc2cc(C(=O)OCC)ccc21`, the IC50 is above 50 µM in experiment [4], 36.8 µM in experiment [5] and above 50 µM in experiment [6].
`CCOC(=O)c1ccc(N2CCN(CCn3c(-c4ccc(-c5ccc(Cl)cc5)cc4)nc4cc(C(=O)OCC)ccc43)CC2)c(N)c1`: the inhibition in experiment [1] came to 43.3%; in experiment [2] it was 28.2%; in experiment [3], 38%.
In the case of `CCCCCCCCn1c(-c2ccc(-c3cccc(-c4ccc(F)cn4)c3)cc2)nc2cc(C(=O)OCC)ccc21`, the inhibition in experiment [1] is 14%; in experiment [2], 22%; in experiment [3], 24.4%.
For `CCOC(=O)c1ccc(N2CCN(CCn3c(-c4ccc(-c5cncc(-c6ccc(F)cc6)c5)cc4)nc4cc(C(=O)OCC)ccc43)CC2)c(N)c1`, in that order: 20.9%, 20.6% and 18.4%.
Regarding `CCCCCCCCn1c(-c2ccc(-c3ccc4c(c3)OCO4)cc2)nc2cc(C(=O)OCC)ccc21`, the IC50 is above 50 µM in experiment [4], 41.4 µM in experiment [5] and above 50 µM in experiment [6].
Consider `CCCCCCCCn1c(-c2ccc(-c3ccc(C)cc3)cc2)nc2cc(C(=O)OCC)ccc21`, for which the inhibition is 30.3% in experiment [1], 15.3% in experiment [2] and 19.4% in experiment [3].
For `CCOC(=O)c1ccc(N2CCN(CCn3c(-c4ccc(-c5ccc(C)cc5)cc4)nc4cc(C(=O)OCC)ccc43)CC2)c(N)c1`, in that order: 43%, 28.4% and 30.7%.
For `CCCCCCCCn1c(-c2ccc(-c3ccc(O)cc3O)cc2)nc2cc(C(=O)OCC)ccc21`, in that order: 45.9%, 29% and 31.5%.
As to `CCOC(=O)c1ccc(N2CCN(CCn3c(-c4ccc(-c5ccc(N6CCCCC6)cc5)cc4)nc4cc(C(=O)OCC)ccc43)CC2)c(N)c1`, the IC50 in experiment [4] was 37 µM; in experiment [5] it was 13.5 µM.
In the case of `CCOC(=O)c1ccc(N2CCN(CCn3c(-c4ccc(-c5ccc(N(C)C)cc5)cc4)nc4cc(C(=O)OCC)ccc43)CC2)c(N)c1`, the results for the IC50 in experiment [4] and in experiment [5] were 10.2 µM and 2.92 µM, respectively. Further, the inhibition result in experiment [7] and in experiment [8] was “Active” in each case.
As for `CCCCCCCCn1c(-c2ccc(-c3ccccc3)cc2)nc2cc(C(=O)OCC)ccc21`, the inhibition in experiment [1] was determined as 30%; in experiment [2] it was 23.9%; in experiment [3] it was 20.4%.
